{"source": "paper PMC10305181", "about": "“A VEGFB-Based Peptidomimetic Inhibits VEGFR2-Mediated PI3K/Akt/mTOR and PLCγ/ERK Signaling and Elicits Apoptotic, Antiangiogenic, and Antitumor Activities” (Pharmaceuticals, 2023)", "key": {"4T1 cells [1]": {"tested_on": "4T1 cells", "assay": "TUNEL assay, 4T1 cells", "format": "cell-based, murine", "conditions": "0.40 μM, n = 3, p = 0.0002", "excerpt": "Periodic boundary conditions were used, and bonds were restrained by applying the LINCS algorithm to their equilibrium position. Initial structures were solvated with three-point model water molecules in a cubic box of 1.0 nm to fully cover the protein system in water, following periodic boundary conditions (PBC). The produced system for each peptide was neutralized through the “genion tool” plugin of the GROMACS package by adding ions Na+ and Cl−. Then, the system was minimized for 50000 iterations using the steepest descent (SD) algorithm and using velocity rescaling (modiﬁed Berendsen) temperature coupling and Parrinello-Rahman pressure coupling methods, simulated under an isothermal-isobaric ensemble (NPT) for 5 ns at a constant temperature, the pressure of 300 K, and 1 atm, respectively. The NVT and NPT equilibration was carried out for 50000 steps. The minimization and equilibration procedures were executed, and finally, one system of the peptide was subjected to a 200 ns production run of MD simulations utilizing 2 fs as the time step and coordinates of all atoms were recorded in the form of .trr GROMACS trajectory ﬁle every 10 ps.\n2 × 10^3 HUVE or 4T1 cells were cultured in DMEM and RPMI-1640 media, respectively, supplemented with 10% (v/v) FBS overnight. Then, the cells were incubated in the media supplemented with 5% FBS, with PBS or C-VGB3 (0.40 μM). […]"}, "ectodomain of VEGFR1": {"tested_on": "ectodomain of VEGFR1", "conditions": "ref [9], cited from earlier work", "procedure": "Our previous study has shown that a peptide reproducing helix α1 of VEGFB can unexpectedly interfere with VEGF binding to VEGFR2 and, consequently, inhibit VEGF-stimulated angiogenesis and tumor growth. In the present study, we extend this observation using another peptide (C-VGB3) that mimics loop2 and its adjacent region of VEGFB. […] For instance, competitive binding of C-VGB3 (100 μM) with biotinyl ..."}, "4T1 cells [2]": {"tested_on": "4T1 cells", "assay": "Annexin V/PI flow cytometry, 4T1 cells", "format": "cell-based, murine", "conditions": "0.40 μM, 24 h, VEGF 20 ng·mL^−1; control 1.80; n = 3; p < 0.0001", "procedure": "An important consequence of VEGF signals is cell survival dominantly via PI3K/AKT/mTOR pathway. Thus, inhibition of VEGF signals leads to the induction of apoptosis. Accordingly, the ability of C-VGB3 to induce apoptosis was investigated. First, apoptotic endothelial and tumor cells were analyzed by flow cytometry after staining with annexin V-FITC and PI. (Figure 6A). Treatment with C-VGB3 (0.40 μM) induced significant apoptosis in both cell lines compared to the controls. […] Apoptosis induction by C-VGB3 was further characterized by the TUNEL assay, as an indicator of late apoptosis, with a confocal microscope (Figure 6B).\nAnnexin V/Propidium Iodide flow cytometry was performed to investigate the C-VGB3 effect on apoptosis induction, as previously described, with some modifications. […]"}, "Ki67-positive cells": {"tested_on": "Ki67-positive cells", "assay": "Ki67 immunohistochemistry of 4T1 tumors (proliferation)", "format": "in vivo, murine", "conditions": "0.2 mg·kg^−1 i.v.; n = 3; p = 0.04 vs control", "procedure": "Figure 2 Loop formation is important for the antitumor activity of VGB3. (A) To investigate the efficacy of VGB3 peptides in vivo 13 days after transplantation of a 4T1 murine MCT into female BALB/c mice (the tumor volume ~150 mm^3), the treatment groups received 0.2 mg·kg^−1 (once every 2 days, i.v.) of either the C-VGB3 or L-VGB3 and the control group received PBS for 20 days. Error bars denote ± SEM. n = 6; **** p < 0.0001, ns = not significant; two-way ANOVA. (B) Investigation of C-VGB3 and L-VGB3 effects on mice weight. […] (C,D) Immunohistochemical (IHC) analyses of CD31 and Ki67 for the C-VGB3-, L-VGB3- and PBS-treated tumors. For IHC staining, the sections of tumor tissues were incubated with the primary mouse monoclonal antibodies for CD31 (1:2000 (v/v)) and Ki67 (5 µg·mL^−1). […] Photographs were taken at 40× magnification. Error bars denote ± SEM. n = 3; * 0.02 ≤ p ≤ 0.04, ns = not significant; one-way ANOVA.\nFor immunohistochemistry staining, deparaffinized tumor sections were incubated overnight at 4 °C with mouse monoclonal primary anti-Ki67 (5 µg·mL^−1) or anti-CD31 (1:2000 (v/v)). The antigens were detected using 3,3-diaminobenzidine. All images were captured and analyzed with an Olympus BX51 microscope (Olympus America, New York, NY, USA)."}}, "note": "Bridge positions count the residues as written; N and C are the ends. Peptide text beside a SMILES is read from it."}
{"smiles": "CC(C)C[C@@H]1NC(=O)CNC(=O)[C@H](CC(=O)O)NC(=O)[C@H](CC(=O)O)NC(=O)[C@@H]2CCCN2C(=O)[C@@H]2CCCN2C(=O)[C@H](CCCNC(=N)N)NC(=O)[C@@H](NC(=O)[C@@H](N)CCC(=O)O)CSSC[C@@H](C(=O)O)NC1=O", "note": "[C-VGB3] (H-ECRPPDDGLC-OH; disulfide 2-10)", "values": [{"measurement": "TUNEL fluorescent labeling", "setting": "4T1 cells [1]", "result": "fluorescent-labeled more than control cells"}, {"measurement": "displacement of btVEGF165", "setting": "ectodomain of VEGFR1; 100 μM, ectodomain of VEGFR1", "result": 63, "unit": "%"}, {"measurement": "binding to VEGFR1", "setting": "ectodomain of VEGFR1", "result": "bind and neutralize VEGFR1"}, {"measurement": "level of apoptotic cells", "setting": "4T1 cells [2]", "result": 22.6, "unit": "%"}, {"measurement": "decrease in Ki67-positive cells", "setting": "Ki67-positive cells", "result": 60, "unit": "%"}]}
